Converted amounts (≈) assume the structure as drawn. Peptide text beside a SMILES is read from it.
What was measured:
[1] = Reverse phase HPLC retention time (hydrophobicity); format: physicochemical; set-up: unit not given beside the values; conditions: C18 column (300 Å pore size, 5 μm particle size), linear gradient acetonitrile/water, higher Rt taken as more hydrophobic
From the text: Materials: LPS of E. coli 0111:B4, FITC-LPS of E. coli 055:B5, acrylamide, NPN (1-N-phenylnaphthylamine) were purchased from Sigma (Saint Louis, MO, USA). All bacterial strains were obtained from the American Type Culture Collection (Manassas, VA, USA). Designed peptides were synthesized commercially by GL Biochem (Shanghai, China) and further purified by a reverse phase HPLC (Waters), using a C18 column (300 Å pore size, 5 μm particle size). The dimeric variants of β-boomerang lipopeptides were treated with 20% DMSO for 18 hours and the oxidized peptides were further purified by HPLC. A linear gradient of acetonitrile/water mixture was used for the purification and fractions eluting with higher purity were collected and freeze-dried.
(§1) In addition, incorporation of disulfide bridges in AMPs may stabilize conformations and enhance cationicity and hydrophobicity required for enhanced activity. […] Residue Ile10 was chosen for Cys replacement since this residue is located at the exposed face of the β-strand of the YI12WF structure (Figure 1).

red blood cells = conditions: mouse RBC ~4% (v/v) in PBS pH 7.0, 1 h, OD540, 1% Triton-X = positive control
Protocol: Hemolytic assay: Blood was collected from healthy mice in a tube containing EDTA. Cells with EDTA were centrifuged at 800 g for 10 min, to remove the buffy plasma coat layer, and washed three times in PBS (35 mM phosphate buffer, 150 mM NaCl, pH 7.0). 50 μL of RBC solution was added to equal volume of two-fold dilution of the peptides in 96-well micro titer plates and incubated for one hour. The final erythrocyte concentration estimated to be ~4% (v/v). After one hour, the mixture was centrifuged and the release of hemoglobin in the supernatant was determined spectrophotometrically at OD540. Buffer and 1% Triton-X in the place of peptides used as negative control and positive control, respectively. The percentage of hemolysis was calculated using the following method: Percentage of hemolysis = (OD peptide − OD buffer)/(OD Triton-X-OD buffer) × 100

E. coli cells = assay: Zeta potential measurements; format: cell-based; conditions: 4 μM peptide; cells without peptide about −20.0 mV; OD600 0.2
Protocol: Zeta potential measurements: The zeta potential measurements were carried out on a Zetasizer Nano ZS (Malvern Instruments, Worcestershire, UK) equipped with a 633 nm He lasers. Mid-log phase grown bacterial cells were diluted to an OD600 of 0.2 and a basal measurement in the absence of peptides was acquired in disposable zeta cells with gold electrodes. Increasing concentrations of the designed peptides were then added to the cells and the measurements were made. A total of five measurements of 100 runs each were carried out for all dilutions.

LPS (endotoxin) = assay: LPS neutralization assay (chromogenic LAL kit); format: biochemical
Protocol: LPS neutralization assay: LAL chromogenic kit (QCL 100 Cambrex, Walkersville, MD, USA) was used to determine endotoxin neutralization of the designed peptides following protocol of the vendor. LPS in Gram negative bacteria activates a proenzyme in limulus amoebocyte lysate (LAL). This activated enzyme in turn catalytically release a colored product pNA from the colorless substrate Ac-Ile-Glu-Ala-Arg-pNA which is detected spectrophotometrically at OD410. All peptides were dissolved in the pyrogen-free water supplied with the kit and pH was adjusted to 7.0 with 1N HCl or 1N NaOH (which is prepared in pyrogen-free water). The increasing concentrations of the peptides were incubated with three different concentrations of endotoxins, i.e., at 0.4, 0.8 and 1.0 endotoxin units (EU) in a total volume of 50 μL for 30 minutes at 37 °C. About 50 μL of LAL reagent was added to peptide-LPS complex and further incubated for 10 minutes followed by addition of 100 μL substrate. After incubation of six minutes for the reaction, the release of colored product was recorded at OD410. Water in the place of peptides served as negative control (blank) that is considered as 0% inhibition and percentage of LPS neutralization was calculated by: % of LPS neutralization = [(OD blank − OD peptide)/OD blank] × 100

E.faecalis (ATCC 29212) = assay: Antibacterial assay (MIC); format: cell-based; conditions: 10 mM phosphate buffer pH 6.8, 3 h 37 °C, streaked on Mueller-Hinton agar
Protocol: (§2) Antibacterial assay: The minimum inhibitory concentration (MIC) of the designed peptides was determined against four Gram-negative strains (E. coli, P. aeruginosa ATCC 27853, K. pneumoniae ATCC 13883, S. enterica ATCC 14028) and four Gram-positive strains (B. subtilis, S. aureus ATCC 25923, S. pyogenes ATCC 19615 and E. faecalis ATCC 29212). In brief, mid logarithmic phase of overnight grown bacterial cultures were obtained in LB broth and adjusted to OD600 0.2 in 10 mM phosphate buffer, pH 6.8. About 50 μL of these cells were added to equal volume of designed peptides at two-fold dilutions in 96-well sterile polypropylene plates followed by incubation for 3hrs at 37 °C. Aliquots of the above titrated wells were streaked onto Mueller-Hinton agar plates and the concentration at which no visible bacterial growth was observed considered as the MIC value of the peptide.

S.enterica (ATCC 14028) = assay: Antibacterial assay (MIC); format: cell-based; conditions: 10 mM phosphate buffer pH 6.8, 3 h 37 °C, streaked on Mueller-Hinton agar
Protocol: as §2

S.aureus (ATCC 25923) = assay: Antibacterial assay (MIC); format: cell-based; conditions: 10 mM phosphate buffer pH 6.8, 3 h 37 °C, streaked on Mueller-Hinton agar
Protocol: as §2

S.pyogenes (ATCC 19615) = assay: Antibacterial assay (MIC); format: cell-based; conditions: 10 mM phosphate buffer pH 6.8, 3 h 37 °C, streaked on Mueller-Hinton agar
Protocol: as §2

[2] = system: P.aeruginosa (ATCC 27853); assay: Antibacterial assay (MIC); format: cell-based; conditions: 10 mM phosphate buffer pH 6.8, 3 h 37 °C, streaked on Mueller-Hinton agar
Protocol: as §2

B.subtilis (Lab strain) = assay: Antibacterial assay (MIC); format: cell-based; conditions: 10 mM phosphate buffer pH 6.8, 3 h 37 °C, streaked on Mueller-Hinton agar
Protocol: as §2

[3] = system: K. pneumoniae (ATCC 13883); assay: Antibacterial assay (MIC); format: cell-based; conditions: 10 mM phosphate buffer pH 6.8, 3 h 37 °C, streaked on Mueller-Hinton agar
Protocol: as §2

E.coli (Lab strain) = assay: Antibacterial assay (MIC); format: cell-based; conditions: 10 mM phosphate buffer pH 6.8, 3 h 37 °C, streaked on Mueller-Hinton agar, no visible growth
Protocol: as §2

LPS micelles [4] = assay: Dynamic light scattering of LPS micelles; set-up: species or system E. coli 0111:B4; conditions: DLS, 0.5 μM LPS, LPS:peptide 1:4; LPS alone 814 nm
Protocol: Dynamic light scattering measurements: LPS forms micelles of large sizes, which with the addition of increasing concentration of peptides, dissociates to smaller sizes. DLS measurements were made for 0.5 μM LPS and then with LPS: Peptide ratios of 1:2 and 1:4. The scattering was measured with Dynamic Light Scattering software provided with the instrument (Brookhaven Instruments Corp., Holtsville, NY, USA) and the scattering data was analyzed with CONTIN method.

LPS micelles [5] = assay: Isothermal titration calorimetry; format: binding, E. coli 0111:B4; conditions: ITC
Protocol: Isothermal titration calorimetry: Binding of designed peptides with LPS micelles was determined using isothermal titration calorimetry in VP-ITC micro calorimeter (Microcal Inc, Northampton, MA, USA). Peptides and LPS samples were dissolved in 10 mM phosphate buffer, pH 7.0 and filtered. LPS at a concentration of 10 μM was loaded into the sample cell and the reference cell was filled with the same buffer. The syringe was filled with 1mM peptide solution. Typically 30 injections of 3.5 μL of the peptides were made into the sample cell at 25 °C. Sample cell was stirred continuously at 300 rpm. Raw data were obtained and analyzed using single site binding model in Microcal Origin 5.0 software. Association constant (Ka) and enthalpy change (ΔH) were directly determined from ITC profiles. Dissociation constant was calculated from Kd = 1/Ka. ΔG and TΔS were estimated from the fundamental equations of thermodynamics, ΔG = −RTlnKa and TΔS = (ΔH − ΔG), respectively.

[6] = aqueous solution for NMR
From the text: as §1
The solution conformations of YI13C, C4YI13C peptides were examined in free solution using two-dimensional ^1H-^1H NOESY and TOCSY experiments.

[7] = system: outer membrane of E. coli cells; assay: Outer membrane permeability assay (NPN dye); format: cell-based; conditions: E. coli OD600 0.5, 10 μM NPN
Protocol: Outer membrane permeability assay: Outer membrane of Gram bacteria acts as permeability barrier for hydrophobic antibacterial compounds. […] E. coli cells were grown to mid logarithmic phase and diluted to an OD600nm of 0.5 in 10 mM sodium phosphate buffer, pH 7.0. The excitation was set at 350 nm and emission at 390–450 nm. NPN was added to the diluted cells at the concentration of 10 μM and a basal fluorescence was recorded followed by the addition of increasing concentration of peptides.

[8] = 0.4 EU endotoxin, 1.0 μM peptide, 30 min 37 °C, OD410

Compound	Retention time (Rt) [1]	% of hemolysis at 50 μM peptide concentration (red blood cells)	Zeta potential of E. coli cells after peptide addition (E. coli cells)	LPS neutralization (LPS (endotoxin); [8])	LPS neutralization (LPS (endotoxin); 1.0 EU endotoxin, 1.0 μM peptide)	Minimum inhibitory concentration (MIC) (E.faecalis (ATCC 29212))	Minimum inhibitory concentration (MIC) (S.enterica (ATCC 14028))	Minimum inhibitory concentration (MIC) (S.aureus (ATCC 25923))	Minimum inhibitory concentration (MIC) (S.pyogenes (ATCC 19615))	Minimum inhibitory concentration (MIC) [2]	Minimum inhibitory concentration (MIC) (B.subtilis (Lab strain))	Minimum inhibitory concentration (MIC) [3]	Minimum inhibitory concentration (MIC) (E.coli (Lab strain))	Diameter of LPS aggregates (LPS micelles [4])	Ka (LPS micelles [5]; 1 mM peptide into 10 μM LPS, 10 mM phosphate buffer pH 7.0, 25 °C, single site binding model)	Kd (LPS micelles [5]; LPS micelles, pH 7.0, 25 °C, Kd = 1/Ka)	Solubility for NMR studies (in words) [6]	NPN fluorescence intensity with increasing peptide (in words) [7]	LPS neutralization (LPS (endotoxin); at increased peptide concentration, different LPS concentrations (0.4, 0.8, 1.0 EU), dose dependent)
CCCC(=O)N[C@@H](Cc1ccc(O)cc1)C(=O)N[C@H](C(=O)N[C@@H](CC(C)C)C(=O)N[C@@H](Cc1c[nH]c2ccccc12)C(=O)N[C@@H](CCCCN)C(=O)N[C@@H](CCCNC(=N)N)C(=O)N[C@@H](CCCCN)C(=O)N[C@@H](CCCNC(=N)N)C(=O)N[C@@H](CCCCN)C(=O)N[C@@H](Cc1ccccc1)C(=O)N[C@@H](CSSC[C@H](NC(=O)[C@H](Cc1ccccc1)NC(=O)[C@H](CCCCN)NC(=O)[C@H](CCCNC(=N)N)NC(=O)[C@H](CCCCN)NC(=O)[C@H](CCCNC(=N)N)NC(=O)[C@H](CCCCN)NC(=O)[C@H](Cc1c[nH]c2ccccc12)NC(=O)[C@H](CC(C)C)NC(=O)[C@@H](NC(=O)[C@H](Cc1ccc(O)cc1)NC(=O)CCC)C(C)C)C(=O)N[C@@H](Cc1ccccc1)C(=O)N[C@H](C(N)=O)[C@@H](C)CC)C(=O)N[C@@H](Cc1ccccc1)C(=O)N[C@H](C(N)=O)[C@@H](C)CC)C(C)C [C4YI13C] (HELM PEPTIDE1{[CCCC(=O)[*:2]].Y.V.L.W.K.R.K.R.K.F.C.F.I.[am]}|PEPTIDE2{[CCCC(=O)[*:2]].Y.V.L.W.K.R.K.R.K.F.C.F.I.[am]}$PEPTIDE1,PEPTIDE2,12:R3-12:R3$$$V2.0)	31.62	14.1%	about +19.1 mV	~ 40%	50%	50 µM (≈ 186 µg/mL)	50 µM (≈ 186 µg/mL)	50 µM (≈ 186 µg/mL)	50 µM (≈ 186 µg/mL)	15 µM (≈ 55.7 µg/mL)	15 µM (≈ 55.7 µg/mL)	8 µM (≈ 29.7 µg/mL)	10 µM (≈ 37.1 µg/mL)	331 nm	2.2 µM⁻¹	450 nM			
CCCCCCCC(=O)N[C@@H](Cc1ccc(O)cc1)C(=O)N[C@H](C(=O)N[C@@H](CC(C)C)C(=O)N[C@@H](Cc1c[nH]c2ccccc12)C(=O)N[C@@H](CCCCN)C(=O)N[C@@H](CCCNC(=N)N)C(=O)N[C@@H](CCCCN)C(=O)N[C@@H](CCCNC(=N)N)C(=O)N[C@@H](CCCCN)C(=O)N[C@@H](Cc1ccccc1)C(=O)N[C@@H](CSSC[C@H](NC(=O)[C@H](Cc1ccccc1)NC(=O)[C@H](CCCCN)NC(=O)[C@H](CCCNC(=N)N)NC(=O)[C@H](CCCCN)NC(=O)[C@H](CCCNC(=N)N)NC(=O)[C@H](CCCCN)NC(=O)[C@H](Cc1c[nH]c2ccccc12)NC(=O)[C@H](CC(C)C)NC(=O)[C@@H](NC(=O)[C@H](Cc1ccc(O)cc1)NC(=O)CCCCCCC)C(C)C)C(=O)N[C@@H](Cc1ccccc1)C(=O)N[C@H](C(N)=O)[C@@H](C)CC)C(=O)N[C@@H](Cc1ccccc1)C(=O)N[C@H](C(N)=O)[C@@H](C)CC)C(C)C [C8YI13C] (HELM PEPTIDE1{[CCCCCCCC(=O)[*:2]].Y.V.L.W.K.R.K.R.K.F.C.F.I.[am]}|PEPTIDE2{[CCCCCCCC(=O)[*:2]].Y.V.L.W.K.R.K.R.K.F.C.F.I.[am]}$PEPTIDE1,PEPTIDE2,12:R3-12:R3$$$V2.0)	37.40	21.5%	~+24.0 mV	around 60%		4 µM (≈ 15.3 µg/mL)	50 µM (≈ 191 µg/mL)	5 µM (≈ 19.1 µg/mL)	50 µM (≈ 191 µg/mL)	5 µM (≈ 19.1 µg/mL)	5 µM (≈ 19.1 µg/mL)	12 µM (≈ 45.9 µg/mL)	3 µM (≈ 11.5 µg/mL)	385 nm			limited solubility	continues to increase	80%
